Data: US20180148418A1, “AMIDO-SUBSTITUTED CYCLOHEXANE DERIVATIVES” (Bayer Pharma Aktiengesellschaft, priority 2015, published 2018)

Legend:
[1] = test system: HEK293 cells cotransfected with the FOP control vector; assay: HEK293 FOP assay (control reporter with non-functional TCF elements); format: cell-based; conditions: Homo sapiens, 16 hours
Method in brief: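 Compound series from 50 μM down to 15 nM, prediluted in DMSO then 50-fold into CAFTY buffer (pH 7.4, 2 mM Ca2+, 0.01% BSA), tested alongside TOP cells on a Geneticin-selected HEK293 FOP line whose TCF elements are replaced by a random sequence; recombinant human Wnt-3a applied at 2500-5 ng/ml.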

[2] = biological target: T1, TNKS1 (Homo sapiens, UniProt O95271); assay: TNKS1 Assay B (auto-parsylation, [3H]-NAD+ SPA); format: biochemical; conditions: 6 nM TNKS1, auto-parsylation, over night at room temperature
T1 construct: purchased BPS Bioscience, San Diego, USA 80579 (TNKS1 Histone Ribosylation Assay Kit)
T1 sequence (O95271 1-1327): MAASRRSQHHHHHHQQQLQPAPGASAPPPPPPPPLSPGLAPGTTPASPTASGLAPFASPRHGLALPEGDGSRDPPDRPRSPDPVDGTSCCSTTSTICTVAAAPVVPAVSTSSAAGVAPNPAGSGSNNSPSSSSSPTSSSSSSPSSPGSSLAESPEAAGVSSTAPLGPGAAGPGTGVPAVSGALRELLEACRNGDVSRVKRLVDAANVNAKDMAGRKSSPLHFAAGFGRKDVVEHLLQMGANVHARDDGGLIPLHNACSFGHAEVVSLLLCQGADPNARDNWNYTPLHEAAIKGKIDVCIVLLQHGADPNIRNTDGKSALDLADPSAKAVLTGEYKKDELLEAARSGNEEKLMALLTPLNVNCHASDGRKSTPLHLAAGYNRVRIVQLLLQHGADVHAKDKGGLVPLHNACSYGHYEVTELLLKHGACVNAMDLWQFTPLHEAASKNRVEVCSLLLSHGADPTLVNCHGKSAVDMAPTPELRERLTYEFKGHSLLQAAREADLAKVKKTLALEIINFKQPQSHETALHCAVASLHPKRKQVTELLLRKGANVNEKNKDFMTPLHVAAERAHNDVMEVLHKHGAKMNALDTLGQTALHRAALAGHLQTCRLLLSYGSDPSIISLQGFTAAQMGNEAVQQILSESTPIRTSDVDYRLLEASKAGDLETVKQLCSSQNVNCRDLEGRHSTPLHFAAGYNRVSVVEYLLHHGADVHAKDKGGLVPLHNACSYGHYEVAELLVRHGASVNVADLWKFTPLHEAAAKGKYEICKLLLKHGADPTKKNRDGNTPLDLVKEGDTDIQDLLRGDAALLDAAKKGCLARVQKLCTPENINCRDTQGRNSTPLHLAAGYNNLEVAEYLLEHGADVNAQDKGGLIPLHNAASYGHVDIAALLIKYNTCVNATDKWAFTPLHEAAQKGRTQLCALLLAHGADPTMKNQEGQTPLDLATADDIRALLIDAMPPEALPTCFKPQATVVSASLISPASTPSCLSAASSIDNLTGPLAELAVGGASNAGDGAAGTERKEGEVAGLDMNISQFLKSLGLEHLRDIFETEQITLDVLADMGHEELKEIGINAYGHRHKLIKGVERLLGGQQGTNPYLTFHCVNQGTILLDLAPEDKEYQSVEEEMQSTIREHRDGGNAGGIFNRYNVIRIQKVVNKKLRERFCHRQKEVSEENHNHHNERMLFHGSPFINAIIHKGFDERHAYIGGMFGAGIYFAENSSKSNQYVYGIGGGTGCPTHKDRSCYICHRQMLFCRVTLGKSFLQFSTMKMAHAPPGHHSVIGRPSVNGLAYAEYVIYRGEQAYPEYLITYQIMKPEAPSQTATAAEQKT

| SMILES | IC50 [2] [nM] | IC50 [1] [nM] |
| --- | --- | --- |
| CNC(=O)c1[nH]cnc1C(=O)N[C@@H]1CC[C@@H](C(=O)Nc2ccc(F)cc2Cl)C[C@H]1OC (racemic) [Example 35, N^4-{(1α,2β,4β)-4-[(2-chloro-4-fluorophenyl)carbamoyl]-2-methoxycyclohexyl}-N^5-methyl-1H-imidazole-4,5-dicarboxamide] | > 10000 | ≥ 50000 |
| CNC(=O)c1[nH]cnc1C(=O)NC1CCC(C(=O)Nc2ccc(F)cc2Cl)CC1C (single isomer, unassigned) [Example 41, N^4-{4-[(2-chloro-4-fluorophenyl)carbamoyl]-2-methylcyclohexyl}-N^5-methyl-1H-imidazole-4,5-dicarboxamide] | > 10000 | ≥ 50000 |
| O=C(NC1CCC(F)(C(=O)Nc2ccc(F)cc2Cl)CC1)c1cnn2cccnc12 (single isomer, unassigned) [Example 365, N-{4-[(2-chloro-4-fluorophenyl)carbamoyl]-4-fluorocyclohexyl}pyrazolo[1,5-a]pyrimidine-3-carboxamide (single isomer)] | > 10000 | 35000 |
| CNC(=O)c1[nH]cnc1C(=O)NC1CCC(F)(C(=O)Nc2ccc(F)cc2Cl)CC1 (single isomer, unassigned) [Example 366, N^4-{4-[(2-chloro-4-fluorophenyl)carbamoyl]-4-fluorocyclohexyl}-N^5-methyl-1H-imidazole-4,5-dicarboxamide (single isomer)] | > 10000 | ≥ 50000 |
| CNC(=O)c1[nH]cnc1C(=O)N[C@@H]1CC[C@@H](C(=O)Nc2ccc(F)cc2Cl)CC1(F)F (stereo in doubt) [Example 32, N^4-{(trans)-4-[(2-chloro-4-fluorophenyl)carbamoyl]-2,2-difluorocyclohexyl}-N^5-methyl-1H-imidazole-4,5-dicarboxamide] | 360 | ≥ 50000 |
| CNC(=O)c1nc[nH]c1C(=O)N[C@H]1CC[C@H](C(=O)Nc2ccc(F)cc2Cl)CC1 [Example 1, N^5-{trans-4-[(2-chloro-4-fluorophenyl)carbamoyl]cyclohexyl}-N^4-methyl-1H-imidazole-4,5-dicarboxamide] | 73 | ≥ 50000 |
| COC1CN(C(=O)c2nc[nH]c2C(=O)N[C@H]2CC[C@H](C(=O)Nc3ccc(F)cc3Cl)CC2)C1 [Example 24, 4 N-{trans-4-[(2-chloro-4-fluorophenyl)carbamoyl]cyclohexyl}-4-[(3-methoxyazetidin-1-yl)carbonyl]-1H-imidazole-5-carboxamide] | 21 | ≥ 50000 |
| CN(C)C1CN(C(=O)c2nc[nH]c2C(=O)N[C@H]2CC[C@H](C(=O)Nc3ccc(F)cc3Cl)CC2)C1 [Example 26, N-{trans-4-[(2-chloro-4-fluorophenyl)carbamoyl]cyclohexyl}-4-{[3-(dimethylamino)azetidin-1-yl]carbonyl}-1H-imidazole-5-carboxamide] | 62 | ≥ 50000 |
| CNC(=O)c1nc[nH]c1C(=O)N[C@H]1CC[C@H](C(=O)Nc2c(F)cc(F)cc2Br)CC1 [Example 28, N^5-{trans-4-[(6-bromo-2,4-difluorophenyl)carbamoyl]cyclohexyl}-N^4-methyl-1H-imidazole-4,5-dicarboxamide] | 68 | ≥ 50000 |
| CNC(=O)c1ocnc1C(=O)N[C@H]1CC[C@H](C(=O)Nc2ccc(F)cc2Cl)CC1 [Example 30] | > 10000 | 40000 |
| O=C(N[C@H]1CC[C@H](C(=O)Nc2ccc(F)cc2Cl)CC1)c1cnn2cccnc12 [Example 43, N-{trans-4-[(2-chloro-4-fluorophenyl)carbamoyl]cyclohexyl}pyrazolo[1,5-a]pyrimidine-3-carboxamide] | 81 | ≥ 50000 |

Further lines, with some results ahead:

| IC50 [2] [nM] | SMILES | IC50 [1] [nM] |
| --- | --- | --- |
| 150 | CNC(=O)c1[nH]cnc1C(=O)N[C@@H]1CC[C@@H](C(=O)Nc2ccc(F)cc2Cl)C[C@@H]1F (racemic) [Example 31, N^4-{(1α,2α,4β)-4-[(2-chloro-4-fluorophenyl)carbamoyl]-2-fluorocyclohexyl}-N^5-methyl-1H-imidazole-4,5-dicarboxamide] | ≥ 50000 |
| 720 | CNC(=O)c1[nH]cnc1C(=O)N[C@H]1CC[C@H](C(=O)Nc2ccc(F)cc2Cl)CC1(F)F (single isomer, unassigned) [Example 33, N^4-{(trans)-4-[(2-chloro-4-fluorophenyl)carbamoyl]-2,2-difluorocyclohexyl}-N^5-methyl-1H-imidazole-4,5-dicarboxamide] | ≥ 50000 |
| 180 | O=C(NCC1CCCO1)c1nc[nH]c1C(=O)N[C@H]1CC[C@H](C(=O)Nc2c(F)cc(F)cc2Cl)CC1 (stereo in doubt) [Example 71, N^5-{trans-4-[(2-chloro-4,6-difluorophenyl)carbamoyl]cyclohexyl}-N^4-[(2R)-tetrahydrofuran-2-ylmethyl]-1H-imidazole-4,5-dicarboxamide] | 23000 |
| 10 | O=C(N[C@H]1CC[C@H](C(=O)Nc2ccc(F)cc2Cl)CC1)c1[nH]cnc1C(=O)N1CC2(CCS2(=O)=O)C1 [Example 22, N-{trans-4-[(2-chloro-4-fluorophenyl)carbamoyl]cyclohexyl}-4-[(1,1-dioxido-1-thia-6-azaspiro[3.3]hept-6-yl)carbonyl]-1H-imidazole-5-carboxamide] | ≥ 50000 |
| 21 | O=C(N[C@H]1CC[C@H](C(=O)Nc2ccc(F)cc2Cl)CC1)c1[nH]cnc1C(=O)N1CCC1 [Example 23, 4-(azetidin-1-ylcarbonyl)-N-{trans-4-[(2-chloro-4-fluorophenyl)carbamoyl]cyclohexyl}-1H-imidazole-5-carboxamide] | ≥ 50000 |
| 13 | O=C(NCCN1CC2(CCO2)C1)c1nc[nH]c1C(=O)N[C@H]1CC[C@H](C(=O)Nc2ccc(F)cc2Cl)CC1 [Example 25, N^5-{trans-4-[(2-chloro-4-fluorophenyl)carbamoyl]cyclohexyl}-N^4-[2-(1-oxa-6-azaspiro[3.3]hept-6-yl)ethyl]-1H-imidazole-4,5-dicarboxamide] | ≥ 50000 |
| 30 | CNC(=O)c1nc[nH]c1C(=O)N[C@H]1CC[C@H](C(=O)Nc2c(Br)cc(F)c(F)c2F)CC1 [Example 27, N^5-{trans-4-[(6-bromo-2,3,4-trifluorophenyl)carbamoyl]cyclohexyl}-N^4-methyl-1H-imidazole-4,5-dicarboxamide] | ≥ 50000 |
| 650 | CNC(=O)c1ncoc1C(=O)N[C@H]1CC[C@H](C(=O)Nc2ccc(F)cc2Cl)CC1 [Example 29, N^5-{trans-4-[(2-chloro-4-fluorophenyl)carbamoyl]cyclohexyl}-N^4-methyl-1,3-oxazole-4,5-dicarboxamide] | ≥ 50000 |
| 120 | Cc1cc(C)n2ncc(C(=O)NC3CCC(C(=O)Nc4ccc(F)cc4Cl)CC3C)c2n1 (centres unmarked) [Example 42, N-{4-[(2-chloro-4-fluorophenyl)carbamoyl]-2-methylcyclohexyl}-5,7-dimethylpyrazolo[1,5-a]pyrimidine-3-carboxamide] | ≥ 50000 |
| 48 | Cc1cc(C)n2ncc(C(=O)N[C@H]3CC[C@H](C(=O)Nc4ccc(F)cc4Cl)CC3)c2n1 [Example 44, N-{trans-4-[(2-chloro-4-fluorophenyl)carbamoyl]cyclohexyl}-5,7-dimethylpyrazolo[1,5-a]pyrimidine-3-carboxamide] | ≥ 50000 |
| 310 | O=C(N[C@H]1CC[C@H](C(=O)Nc2ccc(F)cc2Cl)CC1)c1cnc2cccnn12 [Example 45, N-{trans-4-[(2-chloro-4-fluorophenyl)carbamoyl]cyclohexyl}imidazo[1,2-b]pyridazine-3-carboxamide] | ≥ 50000 |
